Usually Ki stands for a dissociation constant, usually derived from enzyme kinetics or from competition with a known ligand. High values mean weaker binding, low ones tighter binding.

The target of the assay is Carboxylic ester hydrolase (Equus caballus, UniProt Q9N1N9). In words: BChE Inhibition Assay. The note with it: pH 7; 25 °C. The method, then: BChE inhibitions by the carbamate inhibitors were assayed by the Ellman method [Ellman et al., Biochem. Pharm., 7:88-95]. BChE-catalyzed hydrolysis of BTCh in the presence of the carbamate inhibitors and DTNB was followed continuously at 410 nm on a UV-visible spectrometer. The temperature was maintained at 25.0°C by a refrigerated circulating water bath. All inhibition reactions were performed in sodium phosphate buffer (1 mL, 0.1 M, pH 7.0) containing NaCl (0.1 M), acetonitrile (2% by volume), triton X-100 (0.5% by weight), substrate (ATCh for AChE or BTCh for BChE) (50 μM), DTNB, and varying concentrations of inhibitor. Requisite volumes of stock solution of substrateand inhibitors in acetonitrile were injected into the reaction buffer via a pipet. BChE was dissolved in sodium phosphate buffer (0.1 M, pH 7.0).

Molecules are shown by their SMILES.

Sequence of Carboxylic ester hydrolase (Q9N1N9 whole entry): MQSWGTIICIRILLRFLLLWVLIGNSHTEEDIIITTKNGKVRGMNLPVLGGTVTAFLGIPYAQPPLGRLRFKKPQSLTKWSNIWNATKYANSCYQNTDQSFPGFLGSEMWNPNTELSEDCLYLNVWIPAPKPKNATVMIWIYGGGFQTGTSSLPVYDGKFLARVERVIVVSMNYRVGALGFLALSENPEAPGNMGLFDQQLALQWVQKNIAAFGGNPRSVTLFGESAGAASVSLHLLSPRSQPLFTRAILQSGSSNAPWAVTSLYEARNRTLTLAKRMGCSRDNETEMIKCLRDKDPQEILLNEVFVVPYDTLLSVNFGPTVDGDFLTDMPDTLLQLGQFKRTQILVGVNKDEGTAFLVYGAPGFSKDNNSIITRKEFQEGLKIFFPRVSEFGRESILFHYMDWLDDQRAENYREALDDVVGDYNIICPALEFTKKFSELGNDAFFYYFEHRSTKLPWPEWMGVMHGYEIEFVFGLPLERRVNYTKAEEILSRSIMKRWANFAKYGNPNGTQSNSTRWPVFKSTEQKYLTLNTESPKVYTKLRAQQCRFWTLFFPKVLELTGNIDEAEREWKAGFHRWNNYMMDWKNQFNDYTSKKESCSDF

Compound `CCCCNC(=O)OC1CC2CCC1C2` [(R)-(+)-exo-2-norbonyl-N-n-butylcarbamate] had an inhibition constant Ki of 11 nM.

With `CCCCNC(=O)OC1CC2CCC1C2` [(S)-(-)-endo-2-norbornyl-N-n-butylcarbamate], the Ki is 2 nM.

Take `CCCCNC(=O)OC1CC2CCC1C2` [(S)-(-)-exo-2-norbonyl-N-n-butylcarbamate]: the Ki turned out to be 50 nM.
